The source of these data is US20220282304A1, “SAME-SAMPLE ANTIBIOTIC SUSCEPTIBILITY TEST AND RELATED COMPOSITIONS, METHODS AND SYSTEMS” (CALIFORNIA INSTITUTE OF TECHNOLOGY, priority 2021, published 2022).

For this assay, the system named is Escherichia coli isolate. The assay is described as follows: Digital same-sample filtration AST, one treated and one concurrent reference condition (Example 5). The class given is cell-based. Particulars: 1.0 μg/mL ETP; for lysed cells detected: all detected treated cells lysed. The procedure:
The inoculum was small enough that no detectable difference in the sample's optical density at 600 mm (OD600) was detectable by a spectrophotometer with a sensitivity of 0.01 absorbance units. After an incubation at 37° C., the media became turbid with an OD600 of 0.18 absorbance units after 3 hours of incubation.
In this experiment, the number and volume of sample partitions was restricted, for logistical reasons, to 96 partitions 10 μL, in volume, specifically the wells of a 96-well plate. A goal was chosen of having a >98% chance of ending up with at least 48 empty partitions. When all partitions are the same volume, the following formula relates the expected number of empty partitions, the partition volume, and the density of cells.
N is the total number of partitions, n is the number of empty partitions, V is the partition volume, D is the density of cells, and t is a threshold probability chosen by the practitioner. Thus, in order to achieve digital sample partitioning with the available 96-well plate, the contrived clinical specimen was diluted to a cell density of 0.0375 cells/μL. Each 10 μL sample of the specimen would then contain 0.375 cells on average.
To begin the AST protocol, the contrived clinical specimen was physically split into the 96 partitions by transferring 10 μL of the sample, in 96 separate transfers (actually 12 transfers with a multichannel pipette), to 96 wells of a microtiter plate. Each well contained 15 μL of Mueller-Hinton Broth (MHB) growth media. Half of the wells (48) contained 0 μg/mL of dissolved ETP antibiotic and served as reference condition antibiotic exposures. The other half of the wells contained 1.67 μg/mL of ETP (for a final concentration of 1.0 μg/mL) and served as 48 treated condition antibiotic exposures. The 96 antibiotic exposures were incubated at 37° C. for 70 minutes.
The entire volume of each antibiotic exposure was transferred to a Millipore® 96-well sterile polystyrene MultiScreenHTS® filter plate (Millipore-Sigma MSGVS2210). Each well of the filter plate contained a hydrophilic polyvinylidene fluoride (PVDF) filter membrane with a 0.22 μm pore size. The antibiotic exposures were centrifuged at 2200 relative centrifugal force to speed the passage of the antibiotic exposure through the filter and into 96 collecting vessels. The collected fluid was called the “filtrate.”
50 μL of fresh MHB media was spun through the filters after the first centrifugation (above) to wash away residual extracellular nucleic acids present in the fluid wetting the filters. This wash fluid is not collected with the filtrates.
10 μL of each of the filtrates was added to and mixed with 10 μL of Lucigen DNA Extraction Buffer, heated to 65° C. for 6 minutes, then heated to 98° C. for 4 minutes.
20 μL of DNA Extraction Buffer was placed on top of the filters. The filter plate was heated to 65° C. for 6 minutes, shaking at 700 rpm, on a ThermoMixer® flat surface heating block. Then, the filter plate was taped to a clean 96-well polypropylene microtiter plate and centrifuged at 2000 rcf for 2 minutes. The DNA Extraction Buffer fluid that flowed through the filter was collected in the microtiter plate below the filter plate. Next, the microtiter plate was heated to 98° C. for 4 minutes inside a BioRad thermocycler. These collected and heated fluid volumes are termed the “lysates” which comprise intracellular nucleic acid.
Separately, for each of the 96 extracted filtrates and for each of the 96 extracted lysates, 1.00 μL of the extracted filtrate was mixed with 0.02 μL of 3 U/mL Lucigen® RapiDxFire thermostable reverse transcriptase, 0.2 μL of Lucigen® RapiDxFire 10× thermostable buffer, 0.1 μL of 10 mM deoxyribonucleic acid nucleotides, 0.6 μL of deionized water, and 0.08 μL of a 10 μM aqueous solution of DNA primer, according to manufacturer's instructions, to create a reverse transcription reaction with a total volume of 2.0 μL. […]

As to `C[C@@H](O)[C@H]1C(=O)N2C(C(=O)O)=C(S[C@@H]3CN[C@H](C(=O)Nc4cccc(C(=O)O)c4)C3)[C@H](C)[C@H]12` [ETP, ertapenem], the “percent extracellular of detected antibiotic-treated cells (lysis)” value runs as follows: (70 minutes 37° C., qPCR 23S rRNA, 96 partitions) 100%; (70 minutes, ddPCR 23S rRNA, 56 of the 96 partitions) 100%. Also, the “susceptibility call (Fisher's exact test)” value reads like this: (70 minutes, ddPCR) “susceptible”; (70 minutes, qPCR) “susceptible”. The lysed cells detected was determined as 9 (70 minutes, ddPCR, 56 of the 96 partitions) and 19 (70 minutes, qPCR, of the 96 partitions).
